In US10464963B2, “Compounds from invasive Salvinias and methods of using the same” (STEPHEN F. AUSTIN STATE UNIVERSITY, priority 2013, dated 2019):
Like-named read-outs stand apart in the source and are kept apart here.

How the values were obtained:
[1] = system: human leukemia (HL-60); experiment: Cytotoxicity assay (WST-8), HL-60; format: cell-based
[2] = system: normal human lung fibroblasts cells (MRC-5); experiment: Cytotoxicity assay (WST-8), MRC-5; format: cell-based
Description: (§1) PANC-1 and MRC-5 was cultured in complete growth medium according to the ATCC protocols. Cells were grown at 37° C. and 5% CO2 in humidified air.
(§2) Cytotoxicity of total extracts of S. molesta was tested against PANC-1, A549, PC-3, and MRC-5. Cytotoxicity of the fractions was determined using A549 cells, a human non-small lung cancer cell line. Fractions were tested at 25, 50, and 100 μg/mL. The isolated pure compounds were tested in each of the cultured human tumor and normal cell lines at various concentrations between 1 and 100 μM with three replications. Human tumor and normal cells were inoculated into 96 well microtiter plates in 90 μL at plating densities ranging from 5,000 to 40,000 cells/well (measured by Z2 Coulter Counter of Beckman) depending on the doubling time of individual cell lines. Cell growth and viability was measured by WST-8 (Water Soluble Tetrazolium) assays following a standard protocol (Cell Counting Kit-8, Dojindo Molecular, Maryland). The WST-8 assay measured the relative activity of mitochondrial reductase enzymes in viable cells. A control WST reading (T0) before treatment was measured, then cells were continuously exposed to isolates for 48 h. After WST added and incubated for 2 h, the amount of formazan was measured by using a microplate spectrophotometer (μQuant spectrophotometer, Bio-Tek Instruments, Inc., Vermont) at 450 nm. TC or TD represents the readings of the untreated control or with tested compounds. Percent cell-growth (G) and percent cell-growth inhibition (GI) was calculated as: G=(TD−T0/TC−T0)×100; GI=[1−(TD−T0/TC−T0)]×100 for which TD≥T0; and G=(TD−T0/T0)×100; GI=[1−(TD−T0/T0)]×100 for which TD≤T0. […] Cancer drug doxorubicin was used as the positive controls in the cell-based assays.

[3] = system: human prostate cancer (PC-3); experiment: Cytotoxicity assay (WST-8), PC-3; format: cell-based
Description: as §1, §2

[4] = system: human exocrine pancreatic cancer (PANC-1); experiment: Cytotoxicity assay (WST-8), PANC-1; format: cell-based
Description: as §1, §2

[5] = system: human non-small cell lung cancer (A549); experiment: Cytotoxicity assay (WST-8), A549; format: cell-based
Description: as §1, §2

[6] = system: human exocrine pancreatic cancer (BxPC-3); experiment: Cytotoxicity assay (WST-8), BxPC-3; format: cell-based
[7] = Cytotoxicity assay (WST-8), MRC-5; format: cell-based, human; conditions: human
Description: as §1, §2

[8] = Table 7, WST-8, 48 h exposure, mean ± S.D., read-out: Cytotoxic activity (GI50) HL-60
[9] = Table 7, WST-8, 48 h exposure, mean ± S.D., read-out: Cytotoxic activity (GI50) PC-3
[10] = Table 7, WST-8, 48 h exposure, mean ± S.D., read-out: Cytotoxic activity (GI50) PANC-1
[11] = Table 7, WST-8, 48 h exposure, mean ± S.D., read-out: Cytotoxic activity (GI50) A549
[12] = Table 7, WST-8, 48 h exposure, mean ± S.D., read-out: Cytotoxic activity (GI50) BxPC-3
[13] = Homo sapiens, HL-60, Table 7, WST-8, 48 h exposure, mean ± S.D., read-out: Cytotoxic activity (GI50) HL-60
[14] = Homo sapiens, Table 7, WST-8, 48 h exposure, mean ± S.D., read-out: Cytotoxic activity (GI50) PC-3
[15] = Homo sapiens, PANC-1, Table 7, WST-8, 48 h exposure, mean ± S.D., read-out: Cytotoxic activity (GI50) PANC-1
[16] = Homo sapiens, A549, Table 7, WST-8, 48 h exposure, mean ± S.D., read-out: Cytotoxic activity (GI50) A549
[17] = Homo sapiens, BXPC-3, Table 7, WST-8, 48 h exposure, mean ± S.D., read-out: Cytotoxic activity (GI50) BxPC-3
[18] = Homo sapiens, A549, Table 1, read-out: Activity against human non-small cell lung tumor A549 (GI50) (converted)
[19] = Homo sapiens, PANC-1, Table 1, read-out: Activity against human exocrine pancreatic tumor PANC-1 (GI50)
[20] = Homo sapiens, BXPC-3, Table 1, read-out: Activity against human exocrine pancreatic tumor BxPC-3 (GI50) (converted)
[21] = Homo sapiens, HL-60, 48 h, read-out: Cytotoxic activity (GI50) HL-60
[22] = Homo sapiens, HL-60, Table 1, read-out: Activity against human leukemia HL-60 (GI50) (converted)
[23] = Homo sapiens, 48 h, read-out: Cytotoxic activity (GI50) PC-3
[24] = Homo sapiens, Table 1, read-out: Activity against human prostate tumor PC-3 (GI50) (converted)
[25] = Homo sapiens, PANC-1, 48 h, read-out: Cytotoxic activity (GI50) PANC-1
[26] = Homo sapiens, A549, 48 h, read-out: Cytotoxic activity (GI50) A549
[27] = Homo sapiens, BXPC-3, 48 h, read-out: Cytotoxic activity (GI50) BxPC-3

| SMILES | GI50 [1, 13] [µM] | GI50 [3, 14] [µM] | GI50 [4, 15] [µM] | GI50 [5, 16] [µM] | GI50 [6, 17] [µM] | GI50 [5, 18] [µM] | GI50 at 48 h [7] [µM] | GI50 [4, 19] [µM] | GI50 [6, 20] [µM] | GI50 [1, 21] [µM] | GI50 [1, 22] [µM] | GI50 [3, 23] [µM] | GI50 [3, 24] [µM] | GI50 [4, 25] [µM] | GI50 [5, 26] [µM] | GI50 [6, 27] [µM] | further results |
| --- | --- | --- | --- | --- | --- | --- | --- | --- | --- | --- | --- | --- | --- | --- | --- | --- | --- |
| CC(C)C1=Cc2ccc3c(c2C(=O)C1=O)C(=O)CCC3(C)C [Compound 19, 1-oxomiltirone] | – | – | – | – | – | – | – | – | – | – | – | – | – | – | – | – | GI50 [1, 8]: 23.3 ± 6.66 µM; GI50 [2]: 20.4 ± 3.36 µM; GI50 [3, 9]: 19 ± 5.34 µM; GI50 [4, 10]: 32.1 ± 2.75 µM; GI50 [5, 11]: 24.9 ± 5.94 µM; GI50 [6, 12]: 20.5 ± 2 µM |
| CC(C)c1cc2c(cc1O)[C@@]1(C)CCCC(C)(C)[C@@H]1CC2=O [Compound 13, sugiol] | 68.6 ± 13.5 | > 100 | 87.9 ± 11.2 | 79.8 ± 2.18 | 36.1 ± 1.5 | – | – | – | – | – | – | – | – | – | – | – | GI50 ([2]; human, 48 h): > 100 µM |
| COc1cc2c(cc1C(C)C)C(=O)C(O)=C1C(C)(C)CCC[C@@]12C [Compound 11, montbretyl 12-methyl ether] | – | – | – | 21.2 ± 6.21 | – | 21.2 | – | – | – | – | – | – | – | – | – | – | – |
| CC(C)C1=C(O)C(=O)C2=C(CC[C@H]3C(C)(C)CCC[C@]23C)C1=O [Compound 20, royleanone] | 36.3 ± 7.14 | 27.1 ± 11.8 | 52.6 ± 18.8 | 30.1 ± 3.64 | 51 ± 10.4 | – | 45.7 ± 2.32 | 52.6 | 51 | – | – | – | – | – | – | – | – |
| CC(C)c1cc2c(c(O)c1O)[C@@]1(C)CCCC(C)(C)[C@@H]1CC2=O [Compound 12, 11-hydroxysugiol] | – | – | – | – | – | 35 | 40.2 ± 0.91 | 43.1 | 45 | 35.3 ± 0.63 | 35.3 | 41 ± 7.9 | 41 | 43.1 ± 8.32 | 35 ± 6.2 | 45 ± 8.33 | – |
| CC(C)c1cc2c(cc1O)[C@@]1(C)CCCC(C)(C)C1CC2O (some centres unmarked) [Compound 15, 7-hydroxyferruginol] | – | – | – | – | – | 75.1 | 70.5 ± 7.21 | 78.2 | 74.7 | 75.2 ± 1.02 | 75.2 | 85.6 ± 5.3 | 85.6 | 78.2 ± 13.5 | 75.1 ± 7.04 | 74.7 ± 11.1 | – |
| CC(C)c1cc2c(cc1O)[C@@]1(C)CCCC(C)(C)C1=CC2=O [Compound 9, 5,6-dehydrosugiol] | – | – | – | – | – | 84.5 | > 100 | – | – | 92.8 ± 9.98 | – | > 100 | – | > 100 | 84.5 ± 18.7 | > 100 | – |
| CC(C)c1cc(C=O)c([C@@]2(C)CCCC(C)(C)[C@H]2C=O)cc1O [Compound 22, 12-hydroxy-6,7-secoabieta-8,11,13-triene-6,7-dial] | – | – | – | – | – | 93.8 | – | – | – | – | – | – | – | – | 93.8 ± 21.4 | – | – |
| CC(C)c1cc2ccc3c(c2cc1O)CCCC3(C)C [Compound 17, 12-hydroxy simonellite] | 50 ± 15.2 | 43.6 ± 11.9 | 37.5 ± 5.72 | 42.2 ± 3.89 | 36.4 ± 8.08 | 42.2 | – | 37.5 | 36.4 | – | 50 | – | 43.6 | – | – | – | GI50 ([2]; human, 48 h): 55.4 ± 4.94 µM |
| CC(C)c1ccc2c3c(ccc2c1)C(C)(C)CCC3 [Compound 18, simonellite] | – | – | – | – | – | – | – | – | – | – | – | – | – | – | – | – | GI50 [1, 8]: > 100 µM; GI50 [2]: > 100 µM; GI50 [3, 9]: > 100 µM; GI50 [4, 10]: > 100 µM; GI50 [5, 11]: > 100 µM; GI50 [6, 12]: > 100 µM |
| CC(C)c1cc2c(cc1O)[C@@]1(C)CCCC(C)(C)C1C=C2 (some centres unmarked) [Compound 16, 6,7-dehydroferruginol] | – | – | – | – | – | 53.8 | 59.2 ± 7.56 | 46.7 | 37.5 | 66.52 ± 0.04 | 66.5 | 58.1 ± 3.28 | 58.1 | 46.7 ± 11 | 53.8 ± 9.65 | 37.5 ± 4.01 | – |
| CC(C)c1cc2c(cc1O)[C@@]1(C)CCCC(C)(C)[C@@H]1CC2 [Compound 14, ferruginol] | 27.3 ± 8.95 | 56.5 ± 16.5 | 41.1 ± 14.1 | 30.7 ± 5.22 | 21.1 ± 0.51 | – | – | – | – | – | – | – | – | – | – | – | GI50 ([2]; human, 48 h): 40 ± 7.74 µM |
| CC(C)C1=C(O)C(=O)C2=C(C=CC3C(C)(C)CCC[C@]23C)C1=O (some centres unmarked) [Compound 21, 6,7-dehydroroyleanone] | – | – | – | – | – | – | – | – | – | 30 ± 8.3 | – | 46.3 ± 6.6 | – | 51.3 ± 10 | 48 ± 7.75 | 41.7 ± 2.92 | GI50 ([1]; Homo sapiens, HL-60, read-out: Activity against human leukemia HL-60 (GI50)): 30 µM; GI50 at 48 h ([7]; Table 7, normal lung cells, WST-8, 48 h exposure, mean ± S.D., read-out: Cytotoxic activity (GI50) MRC-5): 40.2 ± 2.06 µM; GI50 ([3]; Homo sapiens, read-out: Activity against human prostate tumor PC-3 (GI50)): 46.3 µM; GI50 ([4]; Homo sapiens, PANC-1, read-out: Activity against human exocrine pancreatic tumor PANC-1 (GI50)): 51.3 µM; GI50 ([5]; Homo sapiens, A549, read-out: Activity against human non-small cell lung tumor A549 (GI50)): 48 µM; GI50 ([6]; Homo sapiens, BXPC-3, read-out: Activity against human exocrine pancreatic tumor BxPC-3 (GI50)): 41.7 µM |
